Numbers after ± are expanded uncertainties.
Tests used:
[1] = 101.33 kPa, Liquid; for speed of sound: Sing-around technique in a fixed-path interferometer; for mass density: Vibrating tube method
[2] = refractive index (Na D-line) (dimensionless); conditions: 303.15 K; 101.33 kPa; Liquid; Standard Abbe refractometry
[3] = wn = mass fraction of the nth substance listed; conditions: 298.15 K, 100 kPa, Liquid; for speed of sound: Frequency=3 MHz, Sing-around technique in a fixed-path interferometer; for mass density: Vibrating tube method

CCCCCCCC(=O)[O-].C[NH2+]C1CCCCC1 [N-methylcyclohexylammonium octanoate]
[1]
Conditions	mass density [kg/m3]	speed of sound [m/s]
293.15 K	938.59 ± 1.8	1471.6 ± 8.6
298.15 K	935.17 ± 1.8	1453.1 ± 8.6
303.15 K	931.73 ± 1.8	1435 ± 8.6
308.15 K	928.25 ± 1.8	1417.2 ± 8.6
313.15 K	924.74 ± 1.8	1399.5 ± 8.6
318.15 K	921.21 ± 1.8	1381 ± 8.6
323.15 K	917.65 ± 1.8	1363.7 ± 8.6
328.15 K	914.07 ± 1.8	1346.5 ± 8.6
333.15 K	910.46 ± 1.8	1329.4 ± 8.6
338.15 K	906.82 ± 1.8	1312.4 ± 8.6
343.15 K	903.15 ± 1.8	1295.4 ± 8.6

Conditions	refractive index
[2]	1.464 ± 0.0012

CCCCCCC(=O)[O-].C[NH2+]C1CCCCC1 [N-methylcyclohexylammonium heptanoate]
[1]
Conditions	mass density [kg/m3]	speed of sound [m/s]
293.15 K	945.8 ± 1.9	1478.3 ± 8.6
298.15 K	942.18 ± 1.8	1458.5 ± 8.6
303.15 K	938.51 ± 1.8	1440.2 ± 8.6
308.15 K	934.81 ± 1.8	1422.2 ± 8.6
313.15 K	931.05 ± 1.8	1404.5 ± 8.6
318.15 K	927.26 ± 1.8	1385.1 ± 8.6
323.15 K	923.44 ± 1.8	1368.6 ± 8.6
328.15 K	919.59 ± 1.8	1351.4 ± 8.6
333.15 K	915.71 ± 1.8	1334.1 ± 8.6
338.15 K	911.8 ± 1.8	1316.1 ± 8.6
343.15 K	907.85 ± 1.8	1299.1 ± 8.6

Conditions	refractive index
[2]	1.4636 ± 0.0012

CCCCCC(=O)[O-].C[NH2+]C1CCCCC1 [N-methylcyclohexylammonium hexanoate]
[1]
Conditions	mass density [kg/m3]	speed of sound [m/s]
293.15 K	955.14 ± 1.9	1484 ± 8.6
298.15 K	951.65 ± 1.9	1464.9 ± 8.6
303.15 K	948.13 ± 1.9	1446.4 ± 8.6
308.15 K	944.56 ± 1.9	1428.2 ± 8.6
313.15 K	940.96 ± 1.8	1410.3 ± 8.6
318.15 K	937.32 ± 1.8	1392.6 ± 8.6
323.15 K	933.66 ± 1.8	1375 ± 8.6
328.15 K	929.96 ± 1.8	1357.5 ± 8.6
333.15 K	926.23 ± 1.8	1340 ± 8.6
338.15 K	922.46 ± 1.8	1322.6 ± 8.6
343.15 K	918.66 ± 1.8	1305.2 ± 8.6

Conditions	refractive index
[2]	1.4631 ± 0.0012

CCCCC(=O)[O-].C[NH2+]C1CCCCC1 [N-methylcyclohexylammonium pentanoate]
[1]
Conditions	mass density [kg/m3]	speed of sound [m/s]
293.15 K	965.76 ± 1.9	1495.3 ± 8.6
298.15 K	962.21 ± 1.9	1475.7 ± 8.6
303.15 K	958.63 ± 1.9	1456.7 ± 8.6
308.15 K	955.01 ± 1.9	1438.2 ± 8.6
313.15 K	951.34 ± 1.9	1420.1 ± 8.6
318.15 K	947.63 ± 1.9	1402.1 ± 8.6
323.15 K	943.88 ± 1.9	1384.2 ± 8.6
328.15 K	940.1 ± 1.8	1366.5 ± 8.6
333.15 K	936.29 ± 1.8	1348.8 ± 8.6
338.15 K	932.44 ± 1.8	1331.1 ± 8.6
343.15 K	928.54 ± 1.8	1313.5 ± 8.6

Conditions	refractive index
[2]	1.4627 ± 0.0012

CCCCCCCC(=O)[O-].C[NH2+]C1CCCCC1 [N-methylcyclohexylammonium octanoate] + O
[3]
Conditions	mass density [kg/m3]	speed of sound [m/s]
w2 = 0.002193	935.17 ± 1.8	1453.1 ± 8.6
w2 = 0.004032	935.76 ± 1.8	1457.6 ± 8.6
w2 = 0.005228	936.14 ± 1.8	1459.7 ± 8.6
w2 = 0.007628	937.01 ± 1.8	1462.3 ± 8.6
w2 = 0.009495	937.53 ± 1.8	1463.2 ± 8.6
